This is an account of results in patent US5556849A, “Ruthenium containing phthalocyanin photosensitizers” (priority 1991, dated 1996).

Data set [1] in a line: Light absorption maxima and molar extinction coefficients. The data set is classed as physicochemical. The settings on record: for λmax Q: in water (W). As for the experimental part:
(§1) Compounds according to the invention were assessed and characterised by their light absorption maxima, and their molar extinction coefficients according to conventional test procedures. Most of the compound were tested for their biological activity according to conventional test procedures in the art. The PC50 represents phototoxic concentration 50%. which is the concentration of compound when exposed to a light dose as described herein, causes a 50% reduction in cancer cell growth vs an untreated control population. The phototoxicity index. PI, is the ratio of the PC50 to the cytotoxic concentration 50%. where the growth is reduced by 50% without a light dose being given.

Data set [2] has as its system Adherent cells (HeLa RCA. SKOV OVCAR). The experiment in a line: Phototoxicity (Light): 3H-thymidine incorporation in adherent cells after irradiation, with dark cytotoxicity for PI. The data set is classed as cell-based. Conditions: for PI (phototoxicity index): ratio of PC50 to cytotoxic concentration 50% (no light); for IC50 / PC50 (phototoxic concentration 50%): with light dose, 50% reduction in cancer cell growth vs untreated control, 24 h incubation with sensitizer; for IC50: read-out: PC50 (phototoxic concentration 50%). As for the experimental part:
The media is removed and the cells washed three times with D-PBS. and then covered with D-PBS (200 μl ) and exposed to light from the same source used in the singlet oxygen assay.
This follows the procedure for phototoxicity except that the cells are never exposed to light. The assay is relative to a non-treated control.
as §1
PC50 is determined by a relatively simple in vitro assay on a cellular level, which is generally indicative of photosensitizing activity.
On the technique in general: Incorporation of labelled thymidine or its analogues reports DNA synthesis.

Structures are written as SMILES.

Consider `O=S(=O)([O-])c1cccnc1.O=S(=O)([O-])c1cccnc1.[Na+].[Na+].c1ccc2c(c1)C1=NC2=Nc2c3ccccc3c3[n]2[Ru][n]2c(c4ccccc4c2=NC2=NC(=N3)c3ccccc32)=N1` [RuPc(3PS)2], for which, in data set [1], the “ε (molar extinction coefficient)” value came to 736000 M⁻¹ cm⁻¹ and the “λmax Q” value worked out at 630. For the same molecule, in data set [2], the “PI (phototoxicity index)” value is on record as over 109 and the IC50 turned out to be 929 nM.
Regarding `O=S(=O)([O-])c1cccc(P(c2cccc(S(=O)(=O)[O-])c2)c2cccc(S(=O)(=O)[O-])c2)c1.O=S(=O)([O-])c1cccc(P(c2cccc(S(=O)(=O)[O-])c2)c2cccc(S(=O)(=O)[O-])c2)c1.[Na+].[Na+].[Na+].[Na+].[Na+].[Na+].c1ccc2c(c1)C1=NC3=NC(=Nc4c5ccccc5c5[n]4[Ru][n]4c(c6ccccc6c4=N5)=NC2=N1)c1ccccc13` [RuPc(TPPTS)2], in data set [1], the “ε (molar extinction coefficient)” value stood at 87400 M⁻¹ cm⁻¹ and the “λmax Q” value is listed as 650. Also, in data set [2], the “PI (phototoxicity index)” value is reported as over 15 and the IC50 was found to be 11300 nM.
Take `O=C(O)c1ccncc1C(=O)O.O=C(O)c1ccncc1C(=O)O.c1ccc2c(c1)C1=NC2=Nc2c3ccccc3c3[n]2[Ru][n]2c(c4ccccc4c2=NC2=NC(=N3)c3ccccc32)=N1` [RuPc(34PDCA)2]: in data set [1], the “ε (molar extinction coefficient)” value amounted to 58800 M⁻¹ cm⁻¹ and the “λmax Q” value is recorded as 630. In addition, in data set [2], the “PI (phototoxicity index)” value came out at 47.6 and the IC50 was determined as 2100 nM.
Turning to `N#Cc1cccc(C(=O)O)c1.N#Cc1cccc(C(=O)O)c1.c1ccc2c(c1)C1=NC3=NC(=Nc4c5ccccc5c5[n]4[Ru][n]4c(c6ccccc6c4=N5)=NC2=N1)c1ccccc13` [RuPc(CBA)2], in data set [1], the “ε (molar extinction coefficient)” value was determined as 97600 M⁻¹ cm⁻¹ and the “λmax Q” value was determined as 650. In data set [2], the “PI (phototoxicity index)” value came out at 10.2 and the IC50 amounted to 420 nM.
Consider `O=S(=O)([O-])c1ccc[n+]([Ru-2]2([n+]3cccc(S(=O)(=O)[O-])c3)[n]3c4c5cc6ccccc6cc5c3N=C3N=C(N=c5c6cc7ccccc7cc6c([n]52)=NC2=NC(=N4)c4cc5ccccc5cc42)c2cc4ccccc4cc23)c1.[Na+].[Na+]` [RuNc(3PS)2], for which, in data set [1], the “ε (molar extinction coefficient)” value turned out to be 83000 M⁻¹ cm⁻¹ and the “λmax Q” value is listed as 730. In data set [2], the “PI (phototoxicity index)” value came to 32.6.
With `Nc1cccc(C(=O)O)c1.Nc1cccc(C(=O)O)c1.c1ccc2c(c1)C1=NC3=NC(=Nc4c5ccccc5c5[n]4[Ru][n]4c(c6ccccc6c4=N5)=NC2=N1)c1ccccc13` [RuPc(ABA)2], in data set [1], the “ε (molar extinction coefficient)” value is 72500 M⁻¹ cm⁻¹ and the “λmax Q” value was 638. In data set [2], the “PI (phototoxicity index)” value is 8.8 and the IC50 came out at 3500 nM.
Take `NCCC(=O)[O-].NCCC(=O)[O-].[K+].[K+].c1ccc2cc3c(cc2c1)C1=NC2=NC(=Nc4c5cc6ccccc6cc5c5[n]4[Ru][n]4c(c6cc7ccccc7cc6c4=N5)=NC3=N1)c1cc3ccccc3cc12` [RuNc(β-ALA)2]: in data set [1], the “ε (molar extinction coefficient)” value was determined as 36500 M⁻¹ cm⁻¹ and the “λmax Q” value is listed as 730. In addition, in data set [2], the “PI (phototoxicity index)” value was 1.51 and the IC50 was determined as 960 nM.
The like results for `O=C(O)c1cccnc1.O=C(O)c1cccnc1.c1ccc2cc3c(cc2c1)C1=NC3=Nc2c3cc4ccccc4cc3c3[n]2[Ru][n]2c(c4cc5ccccc5cc4c2=NC2=NC(=N3)c3cc4ccccc4cc32)=N1` [RuNc(Nic)2] were, in that order, 169000 M⁻¹ cm⁻¹, 762, 22.2 and 105 nM.
Consider `O=S(=O)([O-])c1cccc(P(c2ccccc2)c2ccccc2)c1.O=S(=O)([O-])c1cccc(P(c2ccccc2)c2ccccc2)c1.[K+].[K+].c1ccc2c(c1)C1=NC3=NC(=Nc4c5ccccc5c5[n]4[Ru][n]4c(c6ccccc6c4=N5)=NC2=N1)c1ccccc13` [RuPc(TPPMS)2], for which, in data set [1], the “ε (molar extinction coefficient)” value is 90300 M⁻¹ cm⁻¹ and the “λmax Q” value is 652.
With `O=C(O)c1cccnc1.O=C(O)c1cccnc1.c1ccc2c(c1)C1=NC2=Nc2c3ccccc3c3[n]2[Ru][n]2c(c4ccccc4c2=NC2=NC(=N3)c3ccccc32)=N1` [RuPc(Nic)2], in data set [1], the “ε (molar extinction coefficient)” value stood at 648000 M⁻¹ cm⁻¹ and the “λmax Q” value came to 630. Further, in data set [2], the “PI (phototoxicity index)” value was over 79 and the IC50 worked out at 1260 nM.
Consider `O=C([O-])c1cccc(P(c2ccccc2)c2ccccc2)c1.[Na+].c1ccc2c(c1)C1=NC2=Nc2c3ccccc3c3[n]2[Ru][n]2c(c4ccccc4c2=NC2=NC(=N3)c3ccccc32)=N1.c1ccncc1` [RuPc(py)(TPPMC)], for which, in data set [1], the “ε (molar extinction coefficient)” value amounted to 54600 M⁻¹ cm⁻¹ and the “λmax Q” value stood at 644.
On to `O=C(O)c1cccnc1.O=C(O)c1cccnc1.c1cnc2c(n1)C1=NC2=Nc2c3nccnc3c3[n]2[Ru][n]2c(c4nccnc4c2=NC2=NC(=N3)c3nccnc32)=N1` [RupyrPc(Nic)2], for which, in data set [1], the “ε (molar extinction coefficient)” value was 45100 M⁻¹ cm⁻¹ and the “λmax Q” value is 625. Further, in data set [2], the “PI (phototoxicity index)” value came to 1 and the “PC50 (phototoxic concentration 50%)” value is “Inactive”.
As for `O.O.O.O.O=S(=O)([O-])CCc1cc[n+]([Ru-2]2([n+]3ccc(CCS(=O)(=O)[O-])cc3)[n]3c4c5ccccc5c3N=C3N=C(N=c5c6ccccc6c([n]52)=NC2=NC(=N4)c4ccccc42)c2ccccc23)cc1.[K+].[K+]` [RuPc(PES)2 (Ex 2), K2 [Ru(Pc)bis(4-pyridineethanesulfonate)]tetrahydrate], in data set [1], the “ε (molar extinction coefficient)” value came to 72500 M⁻¹ cm⁻¹ and the “λmax Q” value is recorded as 632. For the same molecule, in data set [2], the “PI (phototoxicity index)” value was 1 and the “PC50 (phototoxic concentration 50%)” value was “Inactive”.
As to `Cc1cc2c(cc1C)C1=Nc3c4cc(C)c(C)cc4c4[n]3[Ru][n]3c(c5cc(C)c(C)cc5c3=NC3=NC(=N4)c4cc(C)c(C)cc43)=NC2=N1.O=C(O)c1cncc(C(=O)O)c1.O=C(O)c1cncc(C(=O)O)c1` [Ru(oMe)8 Pc(35PDCA2)], in data set [1], the “ε (molar extinction coefficient)” value amounted to 63300 M⁻¹ cm⁻¹ and the “λmax Q” value came out at 641. Further, in data set [2], the “PI (phototoxicity index)” value worked out at 1 and the “PC50 (phototoxic concentration 50%)” value is given as “Inactive”.
For `O=S(=O)([O-])c1cccc(P(c2cccc(S(=O)(=O)[O-])c2)c2cccc(S(=O)(=O)[O-])c2)c1.O=S(=O)([O-])c1cccc(P(c2cccc(S(=O)(=O)[O-])c2)c2cccc(S(=O)(=O)[O-])c2)c1.[Na+].[Na+].[Na+].[Na+].[Na+].[Na+].c1ccc2cc3c(cc2c1)C1=NC2=NC(=Nc4c5cc6ccccc6cc5c5[n]4[Ru][n]4c(c6cc7ccccc7cc6c4=N5)=NC3=N1)c1cc3ccccc3cc12` [RuNc(TPPTS)2], the “λmax Q” value in data set [1] is reported as 720. Further, the IC50 in data set [2] is over 100000 nM.
On to `O=C(O)c1cncc(C(=O)O)c1.O=C(O)c1cncc(C(=O)O)c1.c1ccc2c(c1)C1=NC2=Nc2c3ccccc3c3[n]2[Ru][n]2c(c4ccccc4c2=NC2=NC(=N3)c3ccccc32)=N1` [RuPc(35PDCA)2], for which, in data set [1], the “ε (molar extinction coefficient)” value turned out to be 48400 M⁻¹ cm⁻¹ and the “λmax Q” value is recorded as 632. Further, in data set [2], the “PI (phototoxicity index)” value is listed as over 5.6 and the IC50 turned out to be 18000 nM.
In the case of `O=S(=O)(O)c1ccc[n+]([Ru-2]2([n+]3cccc(S(=O)(=O)O)c3)[n]3c4c5cc6ccccc6cc5c3N=C3N=C(N=c5c6cc7ccccc7cc6c([n]52)=NC2=NC(=N4)c4cc5ccccc5cc42)c2cc4ccccc4cc23)c1.[Na+].[Na+]` [RuNc(3PS)2], the IC50 in data set [2] came to 460 nM.
